According to paper PMC9329436, “Optimization of the 4-anilinoquin(az)oline scaffold as epidermal growth factor receptor (EGFR) inhibitors for chordoma utilizing a toxicology profiling assay platform” (Scientific Reports, 2022):
Like-named read-outs stand apart in the source and are kept apart here.

Columns and labels:
Type in all cases: biochemical
[1] = target: 320 wild-type protein kinases (Homo sapiens, UniProt Q9BQI3); conditions: HRI, singlicate
Text: (§1) Table S4. Profiling of two compounds at two concentrations against 320 wild-type protein kinases; singlicate measurement; Residual activities (% of control).

[2] = target: 320 wild-type protein kinases (Homo sapiens, UniProt P43250); conditions: singlicate
Text: as §1

[3] = target: 320 wild-type protein kinases (Homo sapiens, UniProt P48730); conditions: CK1-delta, singlicate
Text: as §1

[4] = target: T1, 320 wild-type protein kinases (Homo sapiens, UniProt Q9UEE5); conditions: kinase STK17A, singlicate
T1 sequence (Q9UEE5 1-414): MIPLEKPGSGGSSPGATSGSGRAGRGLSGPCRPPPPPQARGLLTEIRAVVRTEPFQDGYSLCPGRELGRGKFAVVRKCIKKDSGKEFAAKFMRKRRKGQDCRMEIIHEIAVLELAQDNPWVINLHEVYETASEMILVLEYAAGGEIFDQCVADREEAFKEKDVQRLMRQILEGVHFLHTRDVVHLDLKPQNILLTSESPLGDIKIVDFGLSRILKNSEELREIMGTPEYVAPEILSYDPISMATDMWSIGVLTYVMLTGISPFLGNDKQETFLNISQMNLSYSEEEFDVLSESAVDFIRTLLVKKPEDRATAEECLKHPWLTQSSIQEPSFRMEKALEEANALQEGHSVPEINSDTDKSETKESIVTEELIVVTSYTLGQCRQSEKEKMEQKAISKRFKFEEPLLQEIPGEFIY
Text: as §1

[5] = target: T2, 320 wild-type protein kinases (Homo sapiens, UniProt Q12866); conditions: MERTK, singlicate
T2 sequence (Q12866 21-999): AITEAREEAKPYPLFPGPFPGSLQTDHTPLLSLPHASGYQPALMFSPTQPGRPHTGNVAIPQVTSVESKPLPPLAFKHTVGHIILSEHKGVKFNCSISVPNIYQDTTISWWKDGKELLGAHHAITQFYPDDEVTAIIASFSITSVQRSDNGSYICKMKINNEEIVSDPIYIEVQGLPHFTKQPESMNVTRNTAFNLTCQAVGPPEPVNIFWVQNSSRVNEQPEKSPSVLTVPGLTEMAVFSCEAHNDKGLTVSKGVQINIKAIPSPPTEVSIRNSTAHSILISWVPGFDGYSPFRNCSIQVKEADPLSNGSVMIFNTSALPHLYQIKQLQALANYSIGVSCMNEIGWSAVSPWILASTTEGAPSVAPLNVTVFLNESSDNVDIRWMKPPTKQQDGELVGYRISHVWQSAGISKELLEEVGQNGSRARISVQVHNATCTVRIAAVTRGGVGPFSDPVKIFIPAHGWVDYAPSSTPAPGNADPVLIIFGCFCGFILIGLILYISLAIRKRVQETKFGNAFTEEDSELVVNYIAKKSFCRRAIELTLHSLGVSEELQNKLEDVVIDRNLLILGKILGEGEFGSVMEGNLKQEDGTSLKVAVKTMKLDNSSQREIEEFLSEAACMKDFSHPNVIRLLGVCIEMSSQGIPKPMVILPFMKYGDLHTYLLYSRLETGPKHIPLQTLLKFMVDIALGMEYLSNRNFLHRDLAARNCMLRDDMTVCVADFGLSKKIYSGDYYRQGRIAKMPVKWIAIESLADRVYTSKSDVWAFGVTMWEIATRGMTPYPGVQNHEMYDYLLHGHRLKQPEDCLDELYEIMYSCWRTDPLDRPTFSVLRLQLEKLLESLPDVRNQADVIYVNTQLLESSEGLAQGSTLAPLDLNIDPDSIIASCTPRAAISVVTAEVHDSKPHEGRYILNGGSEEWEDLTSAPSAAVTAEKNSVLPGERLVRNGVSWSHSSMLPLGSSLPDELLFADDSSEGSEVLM
Text: as §1

[6] = target: 320 wild-type protein kinases (Homo sapiens, UniProt P04629); conditions: kinase TRK-A, singlicate
Text: as §1

[7] = target: 320 wild-type protein kinases (Homo sapiens, UniProt P80192); conditions: singlicate
Text: as §1

[8] = target: 320 wild-type protein kinases (Homo sapiens, UniProt Q9UBS0); conditions: kinase S6K-beta, singlicate
Text: as §1

[9] = target: 320 wild-type protein kinases (Homo sapiens, UniProt P51617); conditions: singlicate
Text: as §1

[10] = target: 320 wild-type protein kinases (Homo sapiens, UniProt Q9HAZ1); conditions: singlicate
Text: as §1

[11] = target: 320 wild-type protein kinases (Homo sapiens, UniProt P11362); conditions: singlicate
Text: as §1

[12] = target: 320 wild-type protein kinases (Homo sapiens, UniProt Q9Y6M4); conditions: singlicate
Text: as §1

[13] = target: 320 wild-type protein kinases (Homo sapiens, UniProt Q86Y07); conditions: kinase VRK2, singlicate
Text: as §1

[14] = target: 320 wild-type protein kinases (Homo sapiens, UniProt Q9UEW8); conditions: kinase STK39, singlicate
Text: as §1

320 wild-type protein kinases (Homo sapiens, UniProt Q9UBS0), sequence (Q9UBS0 whole entry): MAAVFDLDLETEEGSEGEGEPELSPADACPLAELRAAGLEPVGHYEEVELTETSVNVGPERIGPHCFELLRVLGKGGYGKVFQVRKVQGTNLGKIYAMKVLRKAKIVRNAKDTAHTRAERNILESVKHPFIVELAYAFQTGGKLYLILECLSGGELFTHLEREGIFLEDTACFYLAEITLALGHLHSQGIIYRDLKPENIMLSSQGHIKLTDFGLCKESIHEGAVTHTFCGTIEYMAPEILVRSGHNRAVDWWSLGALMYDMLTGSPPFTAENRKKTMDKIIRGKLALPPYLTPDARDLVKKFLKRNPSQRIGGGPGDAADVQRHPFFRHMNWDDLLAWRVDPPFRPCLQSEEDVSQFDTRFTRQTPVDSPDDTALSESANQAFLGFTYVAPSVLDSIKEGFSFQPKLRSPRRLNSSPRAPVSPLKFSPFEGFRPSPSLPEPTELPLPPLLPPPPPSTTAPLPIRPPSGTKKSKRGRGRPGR
320 wild-type protein kinases (Homo sapiens, UniProt Q86Y07), sequence (Q86Y07 whole entry): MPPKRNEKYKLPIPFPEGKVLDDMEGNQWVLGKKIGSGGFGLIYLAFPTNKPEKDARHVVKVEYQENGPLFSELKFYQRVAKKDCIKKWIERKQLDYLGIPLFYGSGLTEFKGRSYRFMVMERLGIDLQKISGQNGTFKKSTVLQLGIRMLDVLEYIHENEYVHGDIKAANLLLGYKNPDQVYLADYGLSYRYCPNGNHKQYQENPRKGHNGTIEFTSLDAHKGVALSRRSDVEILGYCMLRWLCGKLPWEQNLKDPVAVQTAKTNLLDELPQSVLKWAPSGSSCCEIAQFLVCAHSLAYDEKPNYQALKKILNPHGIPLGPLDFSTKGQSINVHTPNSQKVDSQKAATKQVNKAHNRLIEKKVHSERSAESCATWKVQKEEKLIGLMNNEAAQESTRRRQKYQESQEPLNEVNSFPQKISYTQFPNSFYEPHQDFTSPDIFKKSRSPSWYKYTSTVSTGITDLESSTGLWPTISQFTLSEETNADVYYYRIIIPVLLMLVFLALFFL
320 wild-type protein kinases (Homo sapiens, UniProt P51617), sequence (P51617 whole entry): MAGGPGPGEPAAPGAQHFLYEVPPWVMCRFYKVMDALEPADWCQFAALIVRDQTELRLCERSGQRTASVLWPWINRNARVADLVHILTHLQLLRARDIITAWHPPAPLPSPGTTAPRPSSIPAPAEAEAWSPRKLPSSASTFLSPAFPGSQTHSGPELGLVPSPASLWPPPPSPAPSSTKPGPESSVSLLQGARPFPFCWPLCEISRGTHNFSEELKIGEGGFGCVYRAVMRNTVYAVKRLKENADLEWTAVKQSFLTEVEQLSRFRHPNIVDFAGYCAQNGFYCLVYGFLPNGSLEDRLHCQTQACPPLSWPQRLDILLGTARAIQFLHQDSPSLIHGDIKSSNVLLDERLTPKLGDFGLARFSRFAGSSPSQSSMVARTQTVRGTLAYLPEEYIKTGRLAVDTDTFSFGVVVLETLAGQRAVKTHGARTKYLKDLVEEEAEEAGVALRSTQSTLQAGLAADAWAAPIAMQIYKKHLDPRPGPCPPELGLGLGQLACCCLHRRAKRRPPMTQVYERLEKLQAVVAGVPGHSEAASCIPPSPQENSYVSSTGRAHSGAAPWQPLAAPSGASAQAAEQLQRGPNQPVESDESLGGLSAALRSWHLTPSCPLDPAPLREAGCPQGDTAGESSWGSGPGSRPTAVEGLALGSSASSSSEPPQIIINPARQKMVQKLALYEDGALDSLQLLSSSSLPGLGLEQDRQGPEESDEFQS
320 wild-type protein kinases (Homo sapiens, UniProt Q9BQI3), sequence (Q9BQI3 whole entry): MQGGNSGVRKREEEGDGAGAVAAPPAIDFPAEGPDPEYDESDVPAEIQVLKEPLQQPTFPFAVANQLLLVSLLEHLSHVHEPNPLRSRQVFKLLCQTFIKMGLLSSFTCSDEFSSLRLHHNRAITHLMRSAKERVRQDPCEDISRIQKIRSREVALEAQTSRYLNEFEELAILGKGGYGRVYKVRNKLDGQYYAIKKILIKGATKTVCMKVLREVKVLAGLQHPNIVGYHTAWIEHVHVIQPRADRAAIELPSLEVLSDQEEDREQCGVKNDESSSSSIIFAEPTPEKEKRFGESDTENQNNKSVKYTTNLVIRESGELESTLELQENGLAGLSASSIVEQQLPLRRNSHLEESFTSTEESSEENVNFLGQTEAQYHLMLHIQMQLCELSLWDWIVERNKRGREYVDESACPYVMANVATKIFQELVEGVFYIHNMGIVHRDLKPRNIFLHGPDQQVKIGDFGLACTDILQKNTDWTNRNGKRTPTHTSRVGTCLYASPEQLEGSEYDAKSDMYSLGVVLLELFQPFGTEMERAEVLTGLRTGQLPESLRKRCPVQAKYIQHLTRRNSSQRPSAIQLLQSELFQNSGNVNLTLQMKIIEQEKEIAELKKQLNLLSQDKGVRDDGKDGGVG
320 wild-type protein kinases (Homo sapiens, UniProt P80192), sequence (P80192 whole entry): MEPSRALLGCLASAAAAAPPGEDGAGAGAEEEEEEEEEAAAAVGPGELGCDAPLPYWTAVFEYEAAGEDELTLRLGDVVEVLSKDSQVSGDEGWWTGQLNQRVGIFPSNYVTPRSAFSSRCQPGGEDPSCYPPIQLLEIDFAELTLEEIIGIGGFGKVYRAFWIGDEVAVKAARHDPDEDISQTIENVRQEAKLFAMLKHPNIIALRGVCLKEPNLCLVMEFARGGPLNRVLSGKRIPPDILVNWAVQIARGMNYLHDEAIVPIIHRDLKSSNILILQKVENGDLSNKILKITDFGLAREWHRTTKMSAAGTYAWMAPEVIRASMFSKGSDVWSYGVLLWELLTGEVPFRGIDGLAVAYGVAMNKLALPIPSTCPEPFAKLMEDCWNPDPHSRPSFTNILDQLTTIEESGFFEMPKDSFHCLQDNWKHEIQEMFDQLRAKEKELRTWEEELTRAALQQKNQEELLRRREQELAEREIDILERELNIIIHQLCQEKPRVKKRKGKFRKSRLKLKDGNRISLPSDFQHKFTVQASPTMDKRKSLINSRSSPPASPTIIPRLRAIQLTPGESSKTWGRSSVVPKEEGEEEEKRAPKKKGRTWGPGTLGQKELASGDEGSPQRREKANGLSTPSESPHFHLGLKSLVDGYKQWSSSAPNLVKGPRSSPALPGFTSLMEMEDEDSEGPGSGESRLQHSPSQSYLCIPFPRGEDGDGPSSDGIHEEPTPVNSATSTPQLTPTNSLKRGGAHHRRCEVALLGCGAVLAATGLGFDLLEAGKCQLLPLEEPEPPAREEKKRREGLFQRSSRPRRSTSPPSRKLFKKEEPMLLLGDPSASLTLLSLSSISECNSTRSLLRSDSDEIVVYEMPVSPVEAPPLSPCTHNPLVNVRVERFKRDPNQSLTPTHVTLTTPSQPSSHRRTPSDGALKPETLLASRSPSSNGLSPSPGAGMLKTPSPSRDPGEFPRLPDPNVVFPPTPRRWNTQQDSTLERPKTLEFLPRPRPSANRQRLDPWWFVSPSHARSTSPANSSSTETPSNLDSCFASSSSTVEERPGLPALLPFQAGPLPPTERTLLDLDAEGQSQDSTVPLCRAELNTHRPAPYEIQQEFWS
320 wild-type protein kinases (Homo sapiens, UniProt P04629), sequence (P04629 33-796): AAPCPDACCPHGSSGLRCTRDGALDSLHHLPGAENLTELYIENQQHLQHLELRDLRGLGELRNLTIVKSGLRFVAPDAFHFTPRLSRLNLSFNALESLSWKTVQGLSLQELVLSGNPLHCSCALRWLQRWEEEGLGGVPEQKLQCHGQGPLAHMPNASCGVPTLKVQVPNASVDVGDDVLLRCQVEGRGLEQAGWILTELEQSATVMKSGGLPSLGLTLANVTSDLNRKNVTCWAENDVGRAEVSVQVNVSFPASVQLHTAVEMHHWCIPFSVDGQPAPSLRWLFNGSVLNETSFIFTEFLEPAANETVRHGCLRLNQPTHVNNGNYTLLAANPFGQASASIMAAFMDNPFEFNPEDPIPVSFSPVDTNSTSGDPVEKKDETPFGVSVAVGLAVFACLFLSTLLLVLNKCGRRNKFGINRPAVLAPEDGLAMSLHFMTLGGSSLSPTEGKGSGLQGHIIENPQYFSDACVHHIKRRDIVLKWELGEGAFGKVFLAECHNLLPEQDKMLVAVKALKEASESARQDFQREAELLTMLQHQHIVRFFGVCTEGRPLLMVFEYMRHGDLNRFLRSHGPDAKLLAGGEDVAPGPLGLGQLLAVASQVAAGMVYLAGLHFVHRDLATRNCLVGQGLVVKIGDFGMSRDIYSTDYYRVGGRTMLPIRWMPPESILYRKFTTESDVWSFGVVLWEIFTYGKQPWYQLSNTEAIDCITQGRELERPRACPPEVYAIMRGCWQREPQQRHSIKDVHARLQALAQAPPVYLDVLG
320 wild-type protein kinases (Homo sapiens, UniProt P43250), sequence (P43250 whole entry): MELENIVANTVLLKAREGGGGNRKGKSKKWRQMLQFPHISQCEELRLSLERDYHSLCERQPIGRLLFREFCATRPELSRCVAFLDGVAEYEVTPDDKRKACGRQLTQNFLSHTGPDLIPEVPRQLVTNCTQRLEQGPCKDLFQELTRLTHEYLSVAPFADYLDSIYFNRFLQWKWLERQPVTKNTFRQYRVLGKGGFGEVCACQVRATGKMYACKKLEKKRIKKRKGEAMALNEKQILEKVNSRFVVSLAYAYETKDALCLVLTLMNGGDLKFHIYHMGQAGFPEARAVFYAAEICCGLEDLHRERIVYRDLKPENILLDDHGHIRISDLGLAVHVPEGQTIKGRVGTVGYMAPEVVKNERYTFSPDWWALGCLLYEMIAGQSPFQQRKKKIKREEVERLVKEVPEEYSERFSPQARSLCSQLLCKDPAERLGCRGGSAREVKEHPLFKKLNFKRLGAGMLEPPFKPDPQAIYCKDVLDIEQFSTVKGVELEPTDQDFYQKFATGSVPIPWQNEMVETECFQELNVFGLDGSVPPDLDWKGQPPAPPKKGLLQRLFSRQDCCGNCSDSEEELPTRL

How did the Residual activity ([1]; 1.0E-06 M) turn out when `C#Cc1cc(Nc2ncnc3cc(OC)c(OC)cc23)ccc1Cl` [Compound 45] was run?
Its Residual activity is 87 % of control.

What about the Residual activity ([1]; 1.0E-07 M) of the same compound?
Its Residual activity is 101 % of control.

What about the Residual activity ([2]; GRK6, 1.0E-06 M) of the same compound?
The Residual activity was 101 % of control.

What about the Residual activity ([2]; GRK6, 1.0E-07 M) of the same compound?
Its Residual activity is 133 % of control.

What about the Residual activity ([3]; 1.0E-06 M) of the same compound?
The Residual activity was 111 % of control.

What about the Residual activity ([3]; 1.0E-07 M) of the same compound?
The Residual activity was 129 % of control.

What about the “Residual activity, STK17A” value ([4]; assay conc. 1.0E-06 M) of the same compound?
The value was 83 % of control.

What about the “Residual activity, STK17A” value ([4]; assay conc. 1.0E-07 M) of the same compound?
Its value is 102 % of control.

What about the Residual activity ([5]; 1.0E-06 M) of the same compound?
Its Residual activity is 83 % of control.

What about the Residual activity ([5]; 1.0E-07 M) of the same compound?
The Residual activity was 97 % of control.

And the “Residual activity, TRK-A” value ([6]; assay conc. 1.0E-06 M)?
Its value is 87 % of control.

What about the “Residual activity, TRK-A” value ([6]; assay conc. 1.0E-07 M) of the same compound?
The value was 106 % of control.

What about the Residual activity ([7]; MAP3K9, 1.0E-06 M) of the same compound?
Its Residual activity is 61 % of control.

What about the Residual activity ([7]; MAP3K9, 1.0E-07 M) of the same compound?
The Residual activity was 92 % of control.

And the “Residual activity, S6K-beta” value ([8]; assay conc. 1.0E-06 M)?
Its value is 86 % of control.

What about the “Residual activity, S6K-beta” value ([8]; assay conc. 1.0E-07 M) of the same compound?
The value was 105 % of control.

What about the Residual activity ([9]; IRAK1, 1.0E-06 M) of the same compound?
The Residual activity was 105 % of control.

What about the Residual activity ([9]; IRAK1, 1.0E-07 M) of the same compound?
Its Residual activity is 109 % of control.

What about the Residual activity ([10]; CLK4, 1.0E-06 M) of the same compound?
Its Residual activity is 69 % of control.

And the Residual activity ([10]; CLK4, 1.0E-07 M)?
The Residual activity was 100 % of control.

And the Residual activity ([11]; FGF-R1, 1.0E-06 M)?
Its Residual activity is 92 % of control.

And the Residual activity ([11]; FGF-R1, 1.0E-07 M)?
The Residual activity was 100 % of control.

And the Residual activity ([12]; CK1-gamma3, 1.0E-06 M)?
Its Residual activity is 123 % of control.

And the Residual activity ([12]; CK1-gamma3, 1.0E-07 M)?
The Residual activity was 116 % of control.

And the “Residual activity, VRK2” value ([13]; assay conc. 1.0E-06 M)?
Its value is 232 % of control.

What about the “Residual activity, VRK2” value ([13]; assay conc. 1.0E-07 M) of the same compound?
Its value is 87 % of control.

What about the “Residual activity, STK39” value ([14]; assay conc. 1.0E-06 M) of the same compound?
The value was 91 % of control.

What about the “Residual activity, STK39” value ([14]; assay conc. 1.0E-07 M) of the same compound?
Its value is 102 % of control.

`C#Cc1cc(Nc2ncnc3cc(I)ccc23)ccc1Cl` [Compound 41] was tested. Which Residual activity ([1]; 1.0E-06 M) did it give?
Its Residual activity is 89 % of control.

What about the Residual activity ([1]; 1.0E-07 M) of the same compound?
Its Residual activity is 108 % of control.

And the Residual activity ([2]; GRK6, 1.0E-06 M)?
The Residual activity was 120 % of control.

And the Residual activity ([2]; GRK6, 1.0E-07 M)?
The Residual activity was 124 % of control.

And the Residual activity ([3]; 1.0E-06 M)?
The Residual activity was 115 % of control.

And the Residual activity ([3]; 1.0E-07 M)?
Its Residual activity is 134 % of control.

And the “Residual activity, STK17A” value ([4]; assay conc. 1.0E-06 M)?
Its value is 103 % of control.

What about the “Residual activity, STK17A” value ([4]; assay conc. 1.0E-07 M) of the same compound?
Its value is 104 % of control.

And the Residual activity ([5]; 1.0E-06 M)?
Its Residual activity is 102 % of control.

What about the Residual activity ([5]; 1.0E-07 M) of the same compound?
Its Residual activity is 103 % of control.

And the “Residual activity, TRK-A” value ([6]; assay conc. 1.0E-06 M)?
Its value is 107 % of control.

What about the “Residual activity, TRK-A” value ([6]; assay conc. 1.0E-07 M) of the same compound?
Its value is 100 % of control.

What about the Residual activity ([7]; MAP3K9, 1.0E-06 M) of the same compound?
The Residual activity was 87 % of control.

And the Residual activity ([7]; MAP3K9, 1.0E-07 M)?
The Residual activity was 97 % of control.

What about the “Residual activity, S6K-beta” value ([8]; assay conc. 1.0E-06 M) of the same compound?
The value was 102 % of control.

And the “Residual activity, S6K-beta” value ([8]; assay conc. 1.0E-07 M)?
The value was 96 % of control.

And the Residual activity ([9]; IRAK1, 1.0E-06 M)?
Its Residual activity is 103 % of control.

And the Residual activity ([9]; IRAK1, 1.0E-07 M)?
Its Residual activity is 109 % of control.

What about the Residual activity ([10]; CLK4, 1.0E-06 M) of the same compound?
Its Residual activity is 112 % of control.

What about the Residual activity ([10]; CLK4, 1.0E-07 M) of the same compound?
The Residual activity was 111 % of control.

And the Residual activity ([11]; FGF-R1, 1.0E-06 M)?
Its Residual activity is 85 % of control.

What about the Residual activity ([11]; FGF-R1, 1.0E-07 M) of the same compound?
The Residual activity was 107 % of control.

And the Residual activity ([12]; CK1-gamma3, 1.0E-06 M)?
Its Residual activity is 118 % of control.

What about the Residual activity ([12]; CK1-gamma3, 1.0E-07 M) of the same compound?
The Residual activity was 121 % of control.

And the “Residual activity, VRK2” value ([13]; assay conc. 1.0E-06 M)?
The value was 97 % of control.

What about the “Residual activity, VRK2” value ([13]; assay conc. 1.0E-07 M) of the same compound?
Its value is 95 % of control.

And the “Residual activity, STK39” value ([14]; assay conc. 1.0E-06 M)?
Its value is 98 % of control.

And the “Residual activity, STK39” value ([14]; assay conc. 1.0E-07 M)?
Its value is 106 % of control.
